Source: patent publication US20260234660A1, “TREATMENT OF MUSCLE RELATED DISORDERS WITH ANTI-HUMAN CACNG1 ANTIBODIES” (Regeneron Pharmaceuticals, Inc., priority 2023, published 2026)
Where a name gives a salt, the structure may show the parent alone.

System: human myotubes
Assay: Acetylcholine-induced calcium flux assay in human myotubes (FLIPR)
Format: cell-based
Details: 20 μM nicardipine, positive control for calcium blocking
Method: CACNG1 is the γ1 subunit of the skeletal muscle specific L-type calcium channel, (dihydropyridine receptor), though genetic deletion of CACNG1 appears to have no major impact on skeletal muscle function. To determine whether antibodies that bind CACNG1 impact muscle function, a calcium flux assay was performed on human myotubes that were incubated with CACNG1 antibodies to determine whether these antibodies affect acetylcholine-induced calcium release.
Human skeletal myoblasts (Cook Myosite, Inc.) were plated at 10,000 cells/well of a 96-well plate and were differentiated for 7 days into myotubes. On the final day of differentiation, media was replaced with 50 μL of FLIPR calcium 5 dye with probenecid (Invitrogen) and 50 uL of assay buffer (0.1% BSA-DMEM) per well. CACNG1 and isotype control antibodies were serial diluted in assay buffer and added to the cells and incubated at 37° C. in a 5% CO2 incubator for 1 hour prior to the calcium flux assay. Nicardipine hydrochloride (Sigma) was added to untreated wells to serve as a control for calcium channel blockade. After 1 hour, acetylcholine (Sigma) was added at a 20 uM final concentration to induce myotube calcium release, and plates were assayed on a FLIPR Tetra (Molecular Devices, LLC).

Structure (SMILES): COC(=O)C1=C(C)NC(C)=C(C(=O)OCCN(C)Cc2ccccc2)C1c1cccc([N+](=O)[O-])c1 (stereo not shown) [nicardipine, Nicardipine hydrochloride, reference compound]
- effect on human myotube calcium release: substantially reduced human myotube calcium release
